{"source": "patent US9242959B2", "about": "“(Aza)benzhydryl ether derivatives, their process of preparation and their use as H4-receptor ligands for therapeutical applications” (BIOPROJET, priority 2012, dated 2016)", "key": {"human H4 receptor [1]": {"target": "T1, human H4 receptor (Homo sapiens, UniProt Q9H3N8)", "T1 construct": "expressed in transfected cells", "T1 sequence (Q9H3N8 whole entry)": "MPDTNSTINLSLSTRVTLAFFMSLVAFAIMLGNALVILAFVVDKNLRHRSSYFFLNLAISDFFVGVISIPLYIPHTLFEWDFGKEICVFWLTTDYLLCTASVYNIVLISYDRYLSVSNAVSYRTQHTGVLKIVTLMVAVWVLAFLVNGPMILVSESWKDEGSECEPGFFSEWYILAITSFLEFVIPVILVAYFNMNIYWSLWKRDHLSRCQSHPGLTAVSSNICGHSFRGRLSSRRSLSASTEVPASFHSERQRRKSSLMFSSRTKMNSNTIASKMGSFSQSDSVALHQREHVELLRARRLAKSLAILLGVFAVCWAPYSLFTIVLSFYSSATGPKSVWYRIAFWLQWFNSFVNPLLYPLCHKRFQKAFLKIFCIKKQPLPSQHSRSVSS", "assay": "GTPγ[35S] binding assay on membranes of SH-SY5Y cells stably expressing human H4 receptor", "format": "biochemical", "description": "SH-SY5Y cells stably expressing human H4 receptor are grown until sub-confluence and centrifuged at 300 g 15 minutes at 4° C. Pellets are resuspended in buffer I Tris-HCl 50 mM, MgCl2 10 mM, NaCl 140 mM, pH=7.4 supplemented by Leupeptin 10 μg/mL, Phenyl Methyl Sulphonyl Fluoride (PMSF) 0.1 mM, Aprotinin 2 μg/mL and Pepstatin 2 μM (or a 1/50 dilution of a mix of protease inhibitors). The obtained suspension is stirred gently and submitted to a […] exerted through a syringe. The cell lysate is then centrifuged at 300 g 15 minutes at 4° C. in order to eliminate nucleus and cell scraps. The obtained supernatant is then centrifuged at 48000 g for 30 minutes at 4° C. The final pellet is resuspended in buffer I with a potter homogenizer. Aliquots are frozen in liquid nitrogen and stored until use at −80° C. Protein content is measured by the Bradford method.\nDefreezed membranes are diluted at a final concentration of 5 μg/180 μL/well in buffer I supplemented by GDP 10 μM and distributed in 96 well polystyrene microplate. GTPγ [^35S] labelled ligand (0.2-0.3 nM) is added for additional 30 minutes. After transfer in a Millipore GF/C HTS® microplate, the filtration of the rectional mix is followed by a three times 250 μl wash to stop the reaction.\nThe filter-bound radioactivity is measured in a liquid scintillation counter Microbeta TRILUX® with 50 μl of scintillation fluid.\nResults are expressed with IC50 and Ki values."}, "human H4 receptor [2]": {"target": "T1, human H4 receptor", "assay": "[3H]Histamine binding assay on membranes of CHO cells stably expressing human H4 receptor", "description": "CHO cells stably expressing human H4 receptor were grown until sub-confluence and centrifuged at 300 g 15 minutes at 4° C. Pellets were resuspended in buffer I Tris-HCl 50 mM, MgCl2 10 mM, NaCl 140 mM, pH=7.4 supplemented by a 1/50 dilution of a mix of protease inhibitors. The obtained suspension is stirred gently and submitted to a […] exerted through a syringe. The cell lysate is then centrifuged at 300 g 15 minutes at 4° C. in order to eliminate nucleus and cell scraps. The obtained supernatant was then centrifuged at 48000 g for 30 minutes at 4° C. The final pellet is resuspended in buffer I with a potter homogenizer. Aliquots were frozen in liquid nitrogen and stored until use at −80° C. Protein content is measured by the Bradford method.\nDefreezed membranes were diluted at a final concentration of 20 μg/180 μL/well in a binding buffer containing 50 mM Tris/HCl, 0.5 mM EDTA, pH=7.4 and distributed in 96 well polystyrene microplate. [^3H] […] Non specific binding was estimated in the presence of 10 μM BP1.2404 (JNJ 7777120). The reaction was terminated by filtration through GF/B filters pre-soaked 2 hours at 4° C. in 1% polyethyleneimine. Filters were rinsed 3 times with 250 μl of ice cold incubation binding buffer.\nThe filter-bound radioactivity was measured in a liquid scintillation counter Microbeta TRILUX® with 50 μl of scintillation fluid.\nThe hH4 binding investigated by use of [^3H]"}}}
{"smiles": "Cc1ccnc(C(OC2CCN(C)CC2)c2ccc(C)cc2F)c1.O=C(O)C(=O)O.O=C(O)C(=O)O", "note": "(stereo not drawn) [Example 7, 2-[(2-Fluoro-4-methylphenyl)(1-methylpiperidin-4-yloxy)methyl]-4-methylpyridine, dioxalate]", "values": [{"measurement": "IC50", "setting": "human H4 receptor [1]", "result": "< 300", "unit": "nM"}, {"measurement": "Ki", "setting": "human H4 receptor [2]", "result": "< 300", "unit": "nM"}, {"measurement": "melting point", "result": 52, "unit": "°C"}]}
{"smiles": "Cc1ccc(C(OC2CCN(C)CC2)c2ccc(F)cn2)c(F)c1.O=C(O)C(=O)O", "note": "(stereo not drawn) [Example 10, 5-Fluoro-2-[(2-fluoro-4-methylphenyl)(1-methylpiperidin-4-yloxy)methyl]pyridine, oxalate]", "values": [{"measurement": "IC50", "setting": "human H4 receptor [1]", "result": "< 300", "unit": "nM"}, {"measurement": "Ki", "setting": "human H4 receptor [2]", "result": "< 300", "unit": "nM"}, {"measurement": "melting point", "result": 133, "unit": "°C"}]}
{"smiles": "CN1CCC(OC(c2cccc(C#CCCCCN)c2)c2ccc(Cl)cn2)CC1.O=C(O)C(=O)O", "note": "(stereo not drawn) [Example 18, 6-{3-[(5-Chloropyridin-2-yl)(1-methylpiperidin-4-yloxy)methyl]phenyl}hex-5-ynylamine, oxalate]", "values": [{"measurement": "IC50", "setting": "human H4 receptor [1]", "result": "< 300", "unit": "nM"}, {"measurement": "Ki", "setting": "human H4 receptor [2]", "result": "< 30", "unit": "nM"}, {"measurement": "melting point", "result": 136, "unit": "°C"}]}
{"smiles": "CN1CCC(OC(c2ccc3ccccc3c2)c2cc(OC(F)(F)F)ccc2F)CC1.O=C(O)C(=O)O", "note": "(stereo not drawn) [Example 28, 4-[(2-Fluoro-5-trifluoromethoxyphenyl)naphthalen-2-ylmethoxy]-1-methylpiperidine, oxalate]", "values": [{"measurement": "IC50", "setting": "human H4 receptor [1]", "result": "< 300", "unit": "nM"}, {"measurement": "Ki", "setting": "human H4 receptor [2]", "result": "< 1000", "unit": "nM"}, {"measurement": "melting point", "result": 105, "unit": "°C"}]}
{"smiles": "Cc1ccc(C(OC2CCN(C)CC2)c2ccc(Cl)c(Cl)c2)c(F)c1.O=C(O)C(=O)O", "note": "(stereo not drawn) [Example 30, 4-[(3,4-Dichlorophenyl)(2-fluoro-4-methylphenyl)methoxy]-1-methylpiperidine, oxalate]", "values": [{"measurement": "IC50", "setting": "human H4 receptor [1]", "result": "< 300", "unit": "nM"}, {"measurement": "Ki", "setting": "human H4 receptor [2]", "result": "< 300", "unit": "nM"}, {"measurement": "melting point", "result": 140, "unit": "°C"}]}
{"smiles": "CN1CCC(OC(c2ccc(Cl)c(Cl)c2)c2cc(OC(F)(F)F)ccc2F)CC1.O=C(O)C(=O)O", "note": "(stereo not drawn) [Example 31, 4-[(3,4-Dichlorophenyl)(2-fluoro-5-trifluoromethoxyphenyl)methoxy]-1-methylpiperidine, oxalate]", "values": [{"measurement": "IC50", "setting": "human H4 receptor [1]", "result": "< 300", "unit": "nM"}, {"measurement": "Ki", "setting": "human H4 receptor [2]", "result": "< 300", "unit": "nM"}, {"measurement": "melting point", "result": 115, "unit": "°C"}]}
{"smiles": "CN1CCC(OC(c2ccccc2F)c2cc(OC(F)(F)F)ccc2F)CC1.O=C(O)C(=O)O", "note": "(stereo not drawn) [Example 32, 4-[(2-Fluorophenyl)-(2-fluoro-5-trifluoromethoxyphenyl)methoxy]-1-methylpiperidine, oxalate]", "values": [{"measurement": "IC50", "setting": "human H4 receptor [1]", "result": "< 1000", "unit": "nM"}, {"measurement": "Ki", "setting": "human H4 receptor [2]", "result": "< 1000", "unit": "nM"}, {"measurement": "melting point", "result": 116, "unit": "°C"}]}
{"smiles": "CN1CCC(OC(c2ccc(Cl)cc2)c2cc(OC(F)(F)F)ccc2F)CC1.O=C(O)C(=O)O", "note": "(stereo not drawn) [Example 33, 4-[(4-Chlorophenyl)(2-fluoro-5-trifluoromethoxyphenyl)methoxy]-1-methylpiperidine, oxalate]", "values": [{"measurement": "IC50", "setting": "human H4 receptor [1]", "result": "< 300", "unit": "nM"}, {"measurement": "Ki", "setting": "human H4 receptor [2]", "result": "< 300", "unit": "nM"}, {"measurement": "melting point", "result": 117, "unit": "°C"}]}
{"smiles": "CN1CCC(OC(c2ccc(Cl)cc2)c2cccc(I)c2)CC1.O=C(O)C(=O)O", "note": "(stereo not drawn) [Example 35, 4-[(4-Chlorophenyl)(3-iodophenyl)methoxy]-1-methylpiperidine, oxalate]", "values": [{"measurement": "IC50", "setting": "human H4 receptor [1]", "result": "< 300", "unit": "nM"}, {"measurement": "Ki", "setting": "human H4 receptor [2]", "result": "< 30", "unit": "nM"}, {"measurement": "melting point", "result": 141, "unit": "°C"}]}
